Assay results reported in US5244892A, “Cephem compounds, and antibacterial agents” (Kyorin Pharmaceutical Co., Ltd., priority 1990, dated 1993).
Values after ≈ are worked out from the molar mass of the structure shown. Where two headings read alike, the source gives them in different places.

What was measured:
Assay in all cases: in vitro antibacterial activity (minimum inhibitory concentration), standard method of the Japan Chemotherapy Society
Format in all cases: cell-based
[1] = system: S. epidermidis IID 866; conditions: Staphylococcus epidermidis
[2] = system: Escherichia coli ATCC 10536; conditions: ATCC10536, Gram (-), 10^6 cells/ml, read-out: Minimum inhibitory concentration for growth
[3] = system: Staphylococcus aureus 209P; conditions: read-out: Minimum inhibitory concentration for growth
[4] = system: Streptococcus pneumoniae Type III; conditions: read-out: Minimum inhibitory concentration for growth
[5] = system: Klebsiella pneumoniae 1-220 S; conditions: 1220S, read-out: Minimum inhibitory concentration for growth
[6] = system: Pseudomonas aeruginosa IFO 12689
[7] = IID866, Gram (+), 10^6 cells/ml, read-out: Minimum inhibitory concentration for growth
[8] = IFO12689, Gram (-), 10^6 cells/ml, read-out: Minimum inhibitory concentration for growth

SMILES	MIC [2] [µg/mL]	MIC [1, 7] [µg/mL]	MIC ([3]; Gram (+), 10^6 cells/ml) [µg/mL]	MIC ([4]; Gram (+), 10^6 cells/ml) [µg/mL]	MIC ([5]; Gram (-), 10^6 cells/ml) [µg/mL]	MIC [6, 8] [µg/mL]	MIC ([1]; IID866, read-out: Minimum inhibitory concentration for growth) [µg/mL]	MIC [3] [µg/mL]	MIC [4] [µg/mL]	MIC [5] [µg/mL]	MIC ([6]; IFO12689, read-out: Minimum inhibitory concentration for growth) [µg/mL]
CC(C)(O/N=C(\C(=O)N[C@@H]1C(=O)N2C(C(=O)[O-])=C(C[n+]3ccccc3)CS[C@H]12)c1csc(N)n1)C(=O)O [CAZ, ceftazidime, reference compound]	0.05 (≈ 0.0915 µM)	–	–	–	–	–	3.13 (≈ 5.73 µM)	3.13 (≈ 5.73 µM)	0.39 (≈ 0.714 µM)	0.2 (≈ 0.366 µM)	3.13 (≈ 5.73 µM)
CO/N=C(\C(=O)N[C@@H]1C(=O)N2C(C(=O)O)=C(COC(C)=O)CS[C@H]12)c1csc(N)n1 [CTX, cefotaxime, reference compound]	0.025 (≈ 0.0549 µM)	0.78 (≈ 1.71 µM)	0.78 (≈ 1.71 µM)	0.1 (≈ 0.22 µM)	0.05 (≈ 0.11 µM)	25 (≈ 54.9 µM)	–	–	–	–	–
CO/N=C(\C(=O)N[C@@H]1C(=O)N2C(C(=O)O)=C(CSc3cc(=O)c4cc(O)c(O)cc4s3)CS[C@H]12)c1csc(N)n1 [Example 75, Sodium 7β-[(Z)-2-(2-aminothiazole-4-yl)-2-methoxyiminoacetamido]-3-(6,7-dihydroxy-4-oxo-4H-1-benzothiopyran-2-yl) thiomethyl-3-cephem-4-carboxylate]	≤ 0.0063	0.78	0.39	0.1	≤ 0.0063	0.39	–	–	–	–	–
CO/N=C(\C(=O)N[C@@H]1C(=O)N2C(C(=O)O)=C(CSc3cc(=O)c4cc(O)c(O)cc4s3)CS[C@H]12)c1nsc(N)n1 [Example 90, Sodium 7β[(Z)-2-(5-amino-1,2,4-thiadiazole-3-yl)-2-methoxyiminoacetamido]-3-(6,7-dihydroxy-4-oxo-4H-1-benzothiopyran-2-yl) thiomethyl-3-cephem-4-carboxylate]	≤ 0.0063	1.56	1.56	0.1	≤ 0.0063	0.05	–	–	–	–	–

Second part, led by results:

MIC [2] [µg/mL]	MIC [1, 7] [µg/mL]	MIC ([3]; Gram (+), 10^6 cells/ml) [µg/mL]	MIC ([4]; Gram (+), 10^6 cells/ml) [µg/mL]	MIC ([5]; Gram (-), 10^6 cells/ml) [µg/mL]	MIC [6, 8] [µg/mL]	SMILES	MIC ([1]; IID866, read-out: Minimum inhibitory concentration for growth) [µg/mL]	MIC [3] [µg/mL]	MIC [4] [µg/mL]	MIC [5] [µg/mL]	MIC ([6]; IFO12689, read-out: Minimum inhibitory concentration for growth) [µg/mL]
≤ 0.0063	12.5	12.5	3.13	≤ 0.0063	0.1	Nc1nc(/C(=N/OCC(=O)O)C(=O)N[C@@H]2C(=O)N3C(C(=O)O)=C(CSc4sc5cc(O)c(O)cc5c(=O)c4Br)CS[C@H]23)cs1 [Example 100, Disodium 7β-[(Z)-2-(2-aminothiazole-4-yl)-2-carboxymethoxyiminoacetamido]-3-(3-bromo-6,7-dihydroxy-4-oxo-4H-1-benzothiopyran-2-yl)thiomethyl-3-cephem-4-carboxylate]	–	–	–	–	–
≤ 0.0063	12.5	6.25	0.78	≤ 0.0063	0.05	Nc1nc(/C(=N/OCC(=O)O)C(=O)N[C@@H]2C(=O)N3C(C(=O)O)=C(CSc4cc(=O)c5cc(O)c(O)cc5s4)CS[C@H]23)cs1 [Example 108, Disodium 7β-[(Z)-2-(2-aminothiazole-4-yl)-2-carboxymethoxyiminoacetamido]-3-(6,7-dihydroxy-4-oxo-4H-1-benzothiopyran-2-yl)thiomethyl-3-cephem-4-carboxylate]	–	–	–	–	–
≤ 0.0063	12.5	6.25	0.78	≤ 0.0063	0.05	CC(C)(O/N=C(\C(=O)N[C@@H]1C(=O)N2C(C(=O)O)=C(CSc3cc(=O)c4cc(O)c(O)cc4s3)CS[C@H]12)c1csc(N)n1)C(=O)O [Example 110, Disodium 7β-[(Z)-2-(2-aminothiazole-4-yl)-2-(1-carboxy-1-methylethoxy)iminoacetamido]-3-(6,7-dihydroxy-4-oxo-4H-1-benzothiopyran-2-yl)thiomethyl-3-cephem-4-carboxylate]	–	–	–	–	–
